Assay results reported in US20200277268A1, “PENTAFLUOROPHENYL SULFONAMIDE COMPOUNDS, COMPOSITIONS AND USES THEREOF” (DALRIADA THERAPEUTICS INC., priority 2017, published 2020).
Entries after “also recorded” stand apart in the source; their conditions may differ.

Experiments:
[1] = Intrinsic clearance in mouse hepatocytes
Protocol: A stock of 100 μM test compound was prepared by diluting the 10 mM I-1 test compound in DMSO with a solution of 50% acetonitrile and 50% water. In a 96-well non-coated plate, 198 μL of hepatocytes was pipetted, and the plate was placed in the incubator on an orbital shaker to allow the hepatocytes to warm for 10 minutes. To this solution 2 μL of the 100 μM I-1 was added to start the reaction, and the plate was placed on an orbital shaker. […] The reaction solution was then vortexed for 10 minutes and centrifuged at 4,000 rpm for 30 minutes at 4° C. Next, 400 μL of the supernatant was transferred to one new 96-well plate, centrifuged at 4,000 rpm for 30 minutes at 4° C., and 100 μL of the supernatant was transferred to a new 96-well plate ensuring the pellet was not disturbed. 100 μL of ultrapure water was added to all samples for analysis by LC-MS/MS.
Injection volume was 10 μL.

[2] = test system: A-172; experiment: Cell viability, glioblastoma A-172; type: cell-based; details: Homo sapiens, glioblastoma cell line
Protocol: The anti-cancer efficacy of exemplary compounds of the application were assessed in vitro against different cancer cell lines. […] 1×10^4 cells/well were plated in 96-well assay plates in culture medium. […] In some instances, FBS was removed for periods ranging from 16-24 hours, and re-introduced with test compound addition. After 24 hrs, test compounds and vehicle controls were added to appropriate wells such that the final volume was 100 μl in each well. The cells were cultured for the desired test exposure period (72 hours) at 37° C. and 5% CO2. The assay plates were removed from […] incubator and 20 μl/well of CellTiter-Blue® Reagent was added. The plates were incubated using standard cell culture conditions for 1-4 hours. Afterwards, the plates were shaken for 10 seconds and florescence was recorded at 560/590 nm using a Cytation 3 spectrophotometer. IC50 values were determined using non-linear regression analysis with GraphPad Prism 6.0 (GraphPad Software Inc.).

[3] = target: T1, UBA5 (Homo sapiens, UniProt Q9GZZ9); experiment: Thermal shift assay of UBA5; type: binding; details: 50 μM I-1, 0.5 μM UBA5; without compound 46.43° C.
T1 construct: Constructs of full length human UBA5 (1-404) were cloned into a pET28b(+) vector; His-SUMO (N, cleaved yes); made in house; host or cells: E. coli BL21 (DE3) RILP
Protocol: SYPRO Orange protein gel stain (Sigma-Aldrich) was used to conduct thermal shift assays. This was done on a Bio-Rad C1000 Touch ThermoCycler with a CFX96 Real-Time optical unit. Final UBA5 protein concentrations of 0.5 μM were used in 50 mM HEPES, pH 7.4. UBA5 was pre-incubated with test compound I-1 for 4 hours at 30° C. Next, SYPRO orange was added to the samples for a final 5× (10 μM) concentration from the original 5000× stock. DMSO content was 5% (v/v). Heating was done in 0.5° C. increases with 30 seconds in between, from 10 to 75° C. Fluorescence intensity was measured at […] followed by excitation at […]. This emission intensity was graphed against temperature and then recorded as a first derivative curve. The temperature of the resultant curve minima provided the melting temperature (Tm) of the protein. Experiments were run in triplicates.

[4] = test system: tubulin; experiment: Tubulin polymerization assay; type: biochemical; details: 10 μM compound, optical density 340 nm
[5] = test system: bromodomains; experiment: BROMOscan bromodomain screen (DiscoverX); type: binding; details: 10 μM
Protocol: T7 phage strains displaying bromodomains were grown in parallel in 24-well blocks in an E. coli host derived from the BL21 strain. E. coli were grown to log-phase and infected with T7 phage from a frozen stock (multiplicity of infection=0.4) and incubated with shaking at 32° C. until lysis (90-150 minutes). The lysates were centrifuged (5,000×g) and filtered (0.2 μm) to remove cell debris. […] The liganded beads were blocked with excess biotin and washed with blocking buffer (SeaBlock (Pierce), 1% BSA, 0.05 Tween 20, 1 mM DTT) to remove unbound ligand and to reduce non-specific phage binding. […] Test compounds were prepared as 1000× stocks in 100% DMSO and subsequently diluted 1:25 in monoethylene glycol (MEG). The compounds were then diluted directly into the assays such that the final concentrations of DMSO and MEG were 0.1% and 2.4%, respectively. All reactions were performed in polypropylene 384-well plates in a final volume of 0.02 ml. […] The bromodomain concentration in the eluates was measured by qPCR.
I-1 test compound was tested at 10 μM, and results for primary screen binding interactions are reported as ‘% Ctrl,’ where lower numbers indicate stronger hits in the matrix. % Ctrl is calculated with the following formula:
(§1) test compound=I-1 negative control=DMSO (100% Ctrl) positive control=control compound (0% Ctrl)

[6] = test system: MOLM13; experiment: CellTiter-Blue cell viability, MOLM13; type: cell-based; details: Homo sapiens, MOLM-13
Protocol: (§2) The anti-cancer efficacy of exemplary compounds of the application were assessed in vitro against different cancer cell lines. Cell viability was examined following treatment at various concentrations of inhibitor (0.097656-50 μM) using a CellTiter-Blue® cell viability assay. 1×10^4 cells/well were plated in 96-well assay plates in culture medium. All cells were grown in DMEM, IMDM and RPMI-1640 supplemented with 10% fetal bovine serum (FBS). In some instances, FBS was removed for periods ranging from 16-24 hours, and re-introduced with test compound addition. After 24 hrs, test compounds and vehicle controls were added to appropriate wells such that the final volume was 100 μl in each well. The cells were cultured for the desired test exposure period (72 hours) at 37° C. and 5% CO2. The assay plates were removed from 3° C. incubator and 20 μl/well of CellTiter-Blue® Reagent was added. The plates were incubated using standard cell culture conditions for 1-4 hours. Afterwards, the plates were shaken for 10 seconds and florescence was recorded at 560/590 nm using a Cytation 3 spectrophotometer. IC50 values were determined using non-linear regression analysis with GraphPad Prism 6.0 (GraphPad Software Inc.).

[7] = test system: ATCC3034; experiment: Cell viability, medulloblastoma ATCC3034; type: cell-based; details: medulloblastoma cell line
Protocol: as §2, with “Inc.). […]” for “Inc.).”

[8] = test system: kinases; experiment: KINOMEscan kinase screen (DiscoverX); type: binding; details: 10 μM
Protocol: For most assays, kinase-tagged T7 phage strains were grown in parallel in 24-well blocks in an E. coli host derived from the BL21 strain. E. coli were grown to log-phase and infected with T7 phage from a frozen stock (multiplicity of infection=0.4) and incubated with shaking at 32° C. until lysis (90-150 minutes). The lysates were centrifuged (6,000×g) and filtered (0.2 μm) to remove cell debris. The remaining kinases were produced in HEK-293 cells and subsequently tagged with DNA for qPCR detection. […] The liganded beads were blocked with excess biotin and washed with blocking buffer (SeaBlock (Pierce), 1% BSA, 0.05% Tween 20, 1 mM DTT) to remove unbound ligand and to reduce non-specific phage binding. […] I-1 test compound was prepared as 40× stocks in 100% DMSO and directly diluted into the assay. All reactions were performed in polypropylene 384-well plates in a final volume of 0.02 mL. […] The kinase concentration in the eluates was measured by qPCR. […]
I-1 test compound was tested at 10 μM, and results for primary screen binding interactions are reported as […] where lower numbers indicate stronger hits in the matrix. Ctrl is calculated with the following formula:
as §1

[9] = test system: D458; experiment: Cell viability, medulloblastoma D458; type: cell-based; details: medulloblastoma cell line
Protocol: as §2, with “Inc.). […]” for “Inc.).”

[10] = test system: PL-21; experiment: Cell viability, AML PL-21; type: cell-based; details: Table 4
Protocol: as §2, with “Inc.). […]” for “Inc.).”

T1 sequence (Q9GZZ9 whole entry): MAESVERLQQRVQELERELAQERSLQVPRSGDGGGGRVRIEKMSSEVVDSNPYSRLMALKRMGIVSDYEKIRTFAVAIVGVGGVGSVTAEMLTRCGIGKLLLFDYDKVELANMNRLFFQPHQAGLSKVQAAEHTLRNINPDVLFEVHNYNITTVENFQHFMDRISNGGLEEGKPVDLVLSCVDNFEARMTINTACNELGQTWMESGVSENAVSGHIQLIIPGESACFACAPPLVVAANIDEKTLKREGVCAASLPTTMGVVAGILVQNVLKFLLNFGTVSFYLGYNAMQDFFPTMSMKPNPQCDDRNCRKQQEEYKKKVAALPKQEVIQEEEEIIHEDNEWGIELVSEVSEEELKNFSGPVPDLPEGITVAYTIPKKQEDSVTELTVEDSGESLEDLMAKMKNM

Structure (SMILES): O=S(=O)(c1c(F)c(F)c(F)c(F)c1F)N(Cc1ccc(F)cc1)C1CC1 [Compound I-1, N-cyclopropyl-2,3,4,5,6-pentafluoro-N-(4-fluorobenzyl)benzenesulfonamide]
- half-life at 1 μM [1]: 184 min
- IC50 [2]: 7.16 µM
- melting temperature (Tm) of UBA5 with compound [3]: 44.33 °C
- inhibition of tubulin polymerization [4]: Negligible inhibition; also recorded: no significant inhibitory action
- competitive binding / inhibition of 32 bromodomain targets [5]: negligible competitive binding; also recorded: does not inhibit
- IC50 ([6]; AML cell line, 72 hours): 1500 nM
- IC50 ([6]; AML, Table 4): 2500 nM
- IC50 [7]: 800 nM
- competitive binding / inhibition of kinase targets [8]: negligible competitive binding; also recorded: does not inhibit
- IC50 [9]: 2200 nM
- IC50 [10]: 3.5 µM
